According to patent US9586985B2, “Organic compounds as proantigens for natural killer T cells” (Callaghan Innovation Research Limited, priority 2012, dated 2017):
“Also recorded” adds a separate entry of the source.

What was measured:
[1] = system: NKT cells / CD11c+ dendritic cells; assay: CD86 expression on splenic dendritic cells after injection (DC activation as measure of NKT cell activation); format: in vivo, C57BL/6 mice; details: 200 ng i.v. (FIG. 7: molar equivalent of 200 ng α-GalCer), spleens removed 20 h later, flow cytometry
Protocol: Groups of C57BL/6 mice (n=3) are injected intravenously with 200 ng of the indicated compounds and then the spleens are removed 20 h later for the analysis of CD86 expression on CD11c+ dendritic cells by antibody labelling and flow cytometry. Mean fluorescence index±SEM are presented.
Groups of C57BL/6 mice (n=3) are injected intravenously with 200 ng of α-GalCer or an equivalent molar amount of the indicated compounds and then the spleens are removed 20 h later for the analysis of CD86 expression on CD11c+ dendritic cells by antibody labelling and flow cytometry. Mean fluorescence index±SEM are presented. (Compound CN158A1b=CN158 formulated in accordance with Example 15. Compound CN158A=CN158 in water.)
Each compound of the invention is supplied as formulated product (see example 12), and diluted in phosphate-buffered saline (PBS) for injection (200 ng/mouse) by intravenous injection into the lateral tail vein. In humans the expected therapeutic dose lies in the 50-4800 (μg/m^2) range (Giaccone, Punt et al. 2002). Note, 200 ng in a mouse is a human equivalent dose of 30 μg/m^2.
All antibody labeling is performed on ice in FACS buffer (PBS supplemented with 1% FCS, 0.05% sodium azide, and 2 mM EDTA). Non-specific FcR-mediated antibody staining is blocked by incubation for 10 min with anti-CD16/32 Ab (24G2, prepared in-house from hybridoma supernatant). […]

[2] = HPLC-ESI-MSMS quantification of α-GalCer in test samples; format: physicochemical
Protocol: Quantification of the amount of α-GalCer in various test samples of compounds of the invention is made by HPLC-ESI-MSMS analysis using a Waters 2795 HPLC and a Waters Q-TOF Premier™ Tandem Mass Spectrometer. The chromatography used a Phenomenex Kinetex C18 […] 3.0×50 mm column eluting with isocratic methanol containing 10 mM ammonium formate+0.5% formic acid at a flow rate of 0.2 mL/min. α-GalCer is monitored by selective reactant monitoring of 858.7 to 696.7 Da. The estimate of amount of α-GalCer is made by comparison of ion count integrals to a standard curve run on the same day or by comparison to test samples spiked with a known amount of α-GalCer.
The level of α-GalCer is determined on freshly reconstituted formulated samples unless otherwise stated. The estimated maximum level of α-GalCer for key compounds is given below.

[3] = system: cytokines IL-12p70, IL-4 and IFN-g; assay: Cytokine release into serum after injection (cytokine bead array); format: in vivo, C57BL/6 mice; details: for cytokine profile in vivo compared to α-GalCer: 200 ng i.v. or molar equivalent
Protocol: Groups of C57BL/6 mice (n=3 per group) are injected intravenously with 200 ng of the indicated compounds, and then the serum is collected at the indicated times for analysis of cytokine levels by cytokine bead array technology.
Groups of C57BL/6 mice (n=3 per group) are injected intravenously with 200 ng of α-GalCer or an equivalent molar amount of the indicated compounds, and then the serum is collected at the indicated times for analysis of cytokine levels by cytokine bead array technology. (Compound CN158A1b=CN158 formulated in accordance with Example 15; Compound CN158A=CN158 in water.)
Blood is collected from the lateral tail vein at different time intervals after glycolipid administration. Serum is collected after blood has clotted, and levels of cytokines IL-12p70, IL-4 and IFN-g are assessed by cytokine bead array technology (Bioplex, Biorad), according to the manufacturer's instructions.

[4] = system: SIINFEKL-specific T cells; assay: Peptide-specific T cell proliferation in vivo (adjuvant with OVA); set-up: species or system C57BL/6 mice; details: co-administered i.v. with OVA, molar dose equivalent to α-GalCer, blood after seven days
Protocol: The compounds are injected to give the equivalent molar dose as compared to α-GalCer. To increase sensitivity of the assay, all mice are initially donated a cohort of 10,000 SIINFEKL-specific T cells from a transgenic mouse encoding a T cell receptor for this antigen (OT-1 mice), which is undertaken by intravenous injection of the cells one day before the vaccines are administered. […] It is therefore possible to enumerate SIINFEKL-specific T cells in blood by flow cytometry using antibodies for CD45.1 together with antibodies for the transgenic T cell receptor (Vα2). […] Control animals are injected with the diluent phosphate-buffered saline (PBS). Each dot represents a different animal; mean per treatment group±SEM are presented. ***p<0.001, ** p<0.01, * p<0.05.
Pooled lymph node cell suspensions are prepared from animals of a cross between OT-I mice, which express a transgenic T cell receptor (TCR) specific for the ovalbumin epitope SIINFEKL in the context of H-2K^b molecules, and B6.SJL-Ptprc^a Pepc^b/BoyJ mice, which are congenic with C57BL/6 mice for the CD45.1^+ marker. The samples are enriched for CD8^+ cells using antibody coated magnetic beads (Miltenyi), and then transferred into C57BL/6 mice (1×10^4 per mouse). Groups of recipient animals (n=5) are immunized with compounds of the invention one day later. Doses are chosen to provide equivalent molar values of SIINFEKL peptide. […]

B16.OVA melanoma cells = assay: Anti-tumour activity against subcutaneous B16.OVA tumours, given with OVA protein; format: in vivo, C57BL/6 mice; details: i.v. with 200 μg OVA protein seven days after tumour challenge
Protocol: Progression of subcutaneous B16.OVA tumours is monitored in animals that are treated seven days after tumour challenge with intravenous OVA protein together with the indicated compounds, or treated with PBS. The mean tumour sizes per group (n=5)±SEM are shown.
Progression of subcutaneous B16.OVA tumours is monitored in animals that are treated seven days after tumour challenge with intravenous OVA protein together with the indicated compounds, or treated with PBS. The mean tumour sizes per group (n=5)±SEM are shown. […] (Compound CN158A=CN158 in water.)
Groups of C57BL/6 mice (n=5) receive a subcutaneous injection into the flank of 1×10^5 B16.OVA melanoma cells, which express a cDNA encoding the chicken ovalbumin (OVA) sequence. The different groups are treated 7 days later, when tumours are fully engrafted, by intravenous injection of one of the following; 200 μg OVA protein together with 200 ng α-GalCer, 200 μg OVA protein together with 200 ng of a compound of the invention, or PBS. Mice are monitored for tumour growth every 3-4 days, and tumour size for each group is calculated as the mean of the products of bisecting diameters (±SEM). Measurements are terminated for each group when the first animal develops a tumour exceeding 200 mm^2.

[5] = literature statement; cited from earlier work
Water solubility = format: physicochemical
[6] = non-formulated / unformulated sample (CN158*: aqueous solution)
[7] = freshly reconstituted formulated sample, estimated maximum level

Compound | Max α-GalCer (ppm) [2, 6] | Max α-GalCer/injection [2, 6] [ng] | Max α-GalCer (ppm) [2, 7] | Max α-GalCer/injection [2, 7] [ng] | SIINFEKL-specific T cell response in blood (adjuvant activity) [4] | anti-tumour activity: growth of established B16.OVA tumours (B16.OVA melanoma cells) | cytokine profile in vivo compared to α-GalCer ([3]; FIGS. 3 and 8) | water solubility (Water solubility) [mg/mL] | also measured
CCCCCCCCCCCCCCCCCCCCCCCCCC(=O)O[C@H](CCCCCCCCCCCCCC)[C@@H](O)[C@@H](N)CO[C@H]1O[C@H](CO)[C@H](O)[C@H](O)[C@H]1O [CN089, (2S,3S,4R)-2-Amino-1-O-α-D-galactopyranosyl-4-O-hexacosanoyl octadecane-1,3,4-triol] |  |  |  |  |  |  |  |  | DC activation: CD86 expression on splenic CD11c+ dendritic cells [1]: potently activates DCs; conversion of CN089 to α-GalCer after formulation ([2]; within 1 hour of formulation, LCMSMS): approximately 50%
CCCCCCCCCCCCCCCCCCCCCCCCCC(=O)O[C@H](CCCCCCCCCCCCCC)[C@@H](O)[C@H](CO[C@H]1O[C@H](CO)[C@H](O)[C@H](O)[C@H]1O)NC(=O)OCOP(=O)(O)O [CN131, (2S,3S,4R)-1-O-α-D-Galactopyranosyl-4-O-hexacosanoyl-2-phosphoryloxymethoxycarbonylamino octadecane-1,3,4-triol] | 6,000 (analysis on non- ppm | 1.2 |  |  |  |  |  |  | 
CCCCCCCCCCCCCCCCCCCCCCCCCC(=O)O[C@H](CCCCCCCCCCCCCC)[C@@H](O)[C@H](CO[C@H]1O[C@H](CO)[C@H](O)[C@H](O)[C@H]1O)NC(=O)OCOC(C)=O [CN136, (2S,3S,4R)-2-Acetoxymethoxycarbonylamino-1-O-α-D-galactopyranosyl-4-O-hexacosanoyl octadecane-1,3,4-triol] |  |  | 1,000 ppm | 0.2 |  |  |  |  | 
CCCCCCCCCCCCCCCCCCCCCCCCCC(=O)N[C@@H](CO[C@H]1O[C@H](CO)[C@H](O)[C@H](O)[C@H]1O)[C@H](O)[C@H](O)CCCCCCCCCCCCCC [α-GalCer, α-Galactosylceramide, reference compound] |  |  |  |  | induces a population of SIINFEKL-specific T cells | provides therapeutic anti-tumour activity |  |  | time of peak IFN-γ level in serum ([3]; after injection, mice): 12 h; time of peak IL-4 level in serum ([3]; after injection, mice): 2 to 3 h; time of peak IL-12p70 level in serum ([3]; after injection, mice): 6 h; water solubility (in words) [5]: low water solubility; also recorded: poor solubility
(2S,3S,4R)-1-O-α-D-Galactopyranosyl-4-hexacosanoyl-2-((4-(2-methoxy(poly(2-ethoxy))imino)pentanoyloxy)methoxycarbonylamino) octadecane-1,3,4-triol [CN147] |  |  | 615 ppm | 0.123 |  |  | different cytokine profiles | ~0.5 | course of IL-12p70 level in serum ([3]; 200 ng i.v., FIG. 3): still increasing through 6 to 12 h; ratio of IFN-γ to IL-4 in serum compared to α-GalCer ([3]; 200 ng i.v., FIG. 3): higher ratio of IFN-γ to IL-4 than that of α-GalCer
(2S,3S,4R)-1-O-α-D-Galactopyranosyl-4-hexacosanoyl-2-((4-(ω-methoxy(poly(ethyleneoxy))imino)pentanoyloxy)methyleneoxycarbonylamino) octadecane-1,3,4-triol [CN158] | 170 ppm | 0.24 | 180 ppm | 0.25 | induces a similar T cell expansion | provides therapeutic anti-tumour activity | different cytokine profiles | ~38 | overall levels of systemic cytokine production ([3]; 200 ng α-GalCer or equivalent i.v., FIGS. 3 and 8): no systemic cytokines are detected; also recorded: No detectable cytokines are observed
